Data as given in patent EP4238973A1, “SUBSTITUTED 1,2,4-THIADIAZOLYL ISONICOTINAMIDES, SALTS OR N-OXIDES THEREOF AND THEIR USE AS HERBICIDALLY ACTIVE SUBSTANCES” (Bayer AG, priority 2022, dated 2023).

Tests used:
Assay type in all cases: in vivo
Amaranthus retroflexus [1] = assay: Herbicidal post-emergence action; conditions: visual assessment after ca. 3 weeks vs untreated controls
Description: (§1) Seeds of mono- and dicotyledonous weed plants were sown in plastic pots (double sowings with one species of mono- and one species of dicotyledonous weed plants per pot), in sandy loam, covered with soil and grown under controlled growth conditions. 2 to 3 weeks after sowing, the test plants were sprayed in the single-leaf stage. The compounds according to the invention, formulated in the form of wettable powders (WP) or as emulsifiable concentrates (EC), were sprayed onto the green plant parts as an aqueous suspension or as an emulsion, with the addition of 0.5% of an additive, at an application rate of 600 litres of water per hectare (converted). The test plants were placed in the greenhouse for ca. 3 weeks under optimum growth conditions, and then the effect of the preparations is assessed visually in comparison with untreated controls (herbicidal effect in percent (%): 100% effect = plants have died, 0% effect = as control plants).
as §1, with “(EC), are” for “(EC), were”, “controls (herbicidaleffectinpercent(%):100%effect=plantshavedied,0%effect=ascontrolplants). [formula]” for “controls (herbicidal effect in percent (%): 100% effect = plants have died, 0% effect = as control plants).”

Veronica persica [2] = assay: Herbicidal post-emergence action; conditions: visual assessment after ca. 3 weeks vs untreated controls
Description: as §1
as §1, with “(EC), are” for “(EC), were”, “controls (herbicidaleffectinpercent(%):100%effect=plantshavedied,0%effect=ascontrolplants). [formula]” for “controls (herbicidal effect in percent (%): 100% effect = plants have died, 0% effect = as control plants).”

Digitaria sanguinalis [3] = assay: Herbicidal post-emergence action; conditions: visual assessment after ca. 3 weeks vs untreated controls
Description: as §1
as §1, with “(EC), are” for “(EC), were”, “controls (herbicidaleffectinpercent(%):100%effect=plantshavedied,0%effect=ascontrolplants). [formula]” for “controls (herbicidal effect in percent (%): 100% effect = plants have died, 0% effect = as control plants).”

Stellaria media [4] = assay: Herbicidal post-emergence action; conditions: visual assessment after ca. 3 weeks vs untreated controls
Description: as §1
as §1, with “(EC), are” for “(EC), were”, “controls (herbicidaleffectinpercent(%):100%effect=plantshavedied,0%effect=ascontrolplants). [formula]” for “controls (herbicidal effect in percent (%): 100% effect = plants have died, 0% effect = as control plants).”

Kochia scoparia [5] = assay: Herbicidal post-emergence action; conditions: visual assessment after ca. 3 weeks vs untreated controls
Description: as §1
as §1, with “(EC), are” for “(EC), were”, “controls (herbicidaleffectinpercent(%):100%effect=plantshavedied,0%effect=ascontrolplants). [formula]” for “controls (herbicidal effect in percent (%): 100% effect = plants have died, 0% effect = as control plants).”

Lolium rigidum [6] = assay: Herbicidal post-emergence action; conditions: visual assessment after ca. 3 weeks vs untreated controls
Description: as §1
as §1, with “(EC), are” for “(EC), were”, “controls (herbicidaleffectinpercent(%):100%effect=plantshavedied,0%effect=ascontrolplants). [formula]” for “controls (herbicidal effect in percent (%): 100% effect = plants have died, 0% effect = as control plants).”

Matricaria inodora [7] = assay: Herbicidal post-emergence action; conditions: visual assessment after ca. 3 weeks vs untreated controls
Description: as §1
as §1, with “(EC), are” for “(EC), were”, “controls (herbicidaleffectinpercent(%):100%effect=plantshavedied,0%effect=ascontrolplants). [formula]” for “controls (herbicidal effect in percent (%): 100% effect = plants have died, 0% effect = as control plants).”

Abutilon theophrasti [8] = assay: Herbicidal post-emergence action; conditions: 1280 g/ha, visual assessment after ca. 3 weeks vs untreated controls
Description: as §1
as §1, with “(EC), are” for “(EC), were”, “controls (herbicidaleffectinpercent(%):100%effect=plantshavedied,0%effect=ascontrolplants). [formula]” for “controls (herbicidal effect in percent (%): 100% effect = plants have died, 0% effect = as control plants).”

Poa annua [9] = assay: Herbicidal post-emergence action; conditions: visual assessment after ca. 3 weeks vs untreated controls
Description: as §1
as §1, with “(EC), are” for “(EC), were”, “controls (herbicidaleffectinpercent(%):100%effect=plantshavedied,0%effect=ascontrolplants). [formula]” for “controls (herbicidal effect in percent (%): 100% effect = plants have died, 0% effect = as control plants).”

Alopecurus myosuroides [10] = assay: Herbicidal post-emergence action; conditions: 1280 g/ha, visual assessment after ca. 3 weeks vs untreated controls
Description: as §1
as §1, with “(EC), are” for “(EC), were”, “controls (herbicidaleffectinpercent(%):100%effect=plantshavedied,0%effect=ascontrolplants). [formula]” for “controls (herbicidal effect in percent (%): 100% effect = plants have died, 0% effect = as control plants).”

Veronica persica [11] = assay: Herbicidal pre-emergence action; conditions: 1280 g/ha, visual grading after ca. 3 weeks vs untreated controls
Description: (§2) Seeds of mono- and dicotyledonous weed plants were sown in plastic pots (double sowings with one species of mono- and one species of dicotyledonous weed plants per pot), in sandy loam, and covered with soil. The compounds according to the invention, formulated in the form of wettable powders (WP) or as emulsifiable concentrates (EC), were applied to the surface of the covering soil as an aqueous suspension or as an emulsion, with the addition of 0.5% of an additive, at an application rate of 600 litres of water per hectare (converted). Following treatment, the pots were placed in a greenhouse and kept under optimum growth conditions for the test plants. The visual grading of the damage to the test plants is carried out after ca. 3 weeks in comparison to untreated controls (herbicidal effect in percent (%): 100% effect = plants have died, 0% effect = as control plants). Seeds of mono- and dicotyledonous weed plants were sown in plastic pots (double sowings with one species of mono- and one species of dicotyledonous weed plants per pot), in sandy loam, and covered with soil. The compounds according to the invention, formulated in the form of wettable powders (WP) or as emulsifiable concentrates (EC), were applied to the surface of the covering soil as an aqueous suspension or as an emulsion, with the addition of 0.5% of an additive, at an application rate of 600 litres of water per hectare (converted). Following treatment, the pots were placed in a greenhouse and kept under optimum growth conditions for the test plants. The visual grading of the damage to the test plants is carried out after ca. 3 weeks in comparison to untreated controls (herbicidal effect in percent (%): 100% effect = plants have died, 0% effect = as control plants).

Digitaria sanguinalis [12] = assay: Herbicidal pre-emergence action; conditions: 1280 g/ha, visual grading after ca. 3 weeks vs untreated controls
Description: as §2

Stellaria media [13] = assay: Herbicidal pre-emergence action; conditions: 1280 g/ha, visual grading after ca. 3 weeks vs untreated controls
Description: as §2

Lolium rigidum [14] = assay: Herbicidal pre-emergence action; conditions: visual grading after ca. 3 weeks vs untreated controls
Description: as §2

Matricaria inodora [15] = assay: Herbicidal pre-emergence action; conditions: 1280 g/ha, visual grading after ca. 3 weeks vs untreated controls
Description: as §2

Poa annua [16] = assay: Herbicidal pre-emergence action; conditions: visual grading after ca. 3 weeks vs untreated controls
Description: as §2

Alopecurus myosuroides [17] = assay: Herbicidal pre-emergence action; conditions: 1280 g/ha, visual grading after ca. 3 weeks vs untreated controls
Description: as §2

Amaranthus retroflexus [18] = assay: Herbicidal pre-emergence action; conditions: 1280 g/ha, visual grading after ca. 3 weeks vs untreated controls
Description: as §2

Kochia scoparia [19] = assay: Herbicidal pre-emergence action; conditions: 1280 g/ha, visual grading after ca. 3 weeks vs untreated controls
Description: as §2

Abutilon theophrasti [20] = assay: Herbicidal pre-emergence action; conditions: 1280 g/ha, visual grading after ca. 3 weeks vs untreated controls
Description: as §2

Echinochloa crus-galli = assay: Herbicidal pre-emergence action; conditions: 1280 g/ha, visual grading after ca. 3 weeks vs untreated controls
Description: as §2

| SMILES | herbicidal effect in percent (%), AMARE (Amaranthus retroflexus [1]; 1280 g/ha) [%] | herbicidal effect in percent (%), VERPE (Veronica persica [2]; 320 g/ha) [%] | herbicidal effect in percent (%), VERPE (Veronica persica [2]; 1280 g/ha) [%] | herbicidal effect in percent (%), DIGSA (Digitaria sanguinalis [3]; 1280 g/ha) [%] | herbicidal effect in percent (%), STEME (Stellaria media [4]; 320 g/ha) [%] | herbicidal effect in percent (%), STEME (Stellaria media [4]; 1280 g/ha) [%] | herbicidal effect in percent (%), KCHSC (Kochia scoparia [5]; 1280 g/ha) [%] | herbicidal effect in percent (%), LOLRI (Lolium rigidum [6]; 1280 g/ha) [%] | herbicidal effect in percent (%), MATIN (Matricaria inodora [7]; 320 g/ha) [%] | herbicidal effect in percent (%), MATIN (Matricaria inodora [7]; 1280 g/ha) [%] | herbicidal effect in percent (%), ABUTH (Abutilon theophrasti [8]) [%] | herbicidal effect in percent (%), POAAN (Poa annua [9]; 320 g/ha) [%] | herbicidal effect in percent (%), POAAN (Poa annua [9]; 1280 g/ha) [%] | herbicidal effect in percent (%), ALOMY (Alopecurus myosuroides [10]) [%] | herbicidal effect in percent (%), STEME (Stellaria media [13]) [%] | herbicidal effect in percent (%), LOLRI (Lolium rigidum [14]; 1280 g/ha) [%] | herbicidal effect in percent (%), MATIN (Matricaria inodora [15]) [%] | herbicidal effect in percent (%), POAAN (Poa annua [16]; 1280 g/ha) [%] | herbicidal effect in percent (%), ALOMY (Alopecurus myosuroides [17]) [%] | herbicidal effect in percent (%), AMARE (Amaranthus retroflexus [18]) [%] | further results |
| --- | --- | --- | --- | --- | --- | --- | --- | --- | --- | --- | --- | --- | --- | --- | --- | --- | --- | --- | --- | --- | --- |
| O=C(Nc1ncns1)c1c(Br)cncc1Br [Example I-015] | 90 | 100 | 100 | 100 | 100 | 100 | 100 | 100 | 100 | 100 | 100 | 100 | 100 | 100 | 90 | 90 | 100 | 100 | 100 | – | herbicidal effect in percent (%), VERPE (Veronica persica [11]): 100%; herbicidal effect in percent (%), DIGSA (Digitaria sanguinalis [12]): 100%; herbicidal effect in percent (%), POAAN (Poa annua [16]; 320 g/ha): 100% |
| O=C(Nc1nc(Cl)ns1)c1ccncc1I [Example 1-023, N-(3-chloro-1,2,4-thiadiazol-5-yl)-3-iodo-pyridine-4-carboxamide] | 90 | – | – | – | – | 90 | 90 | – | – | 100 | – | – | 90 | – | 100 | 90 | 100 | – | – | 100 | – |
| O=C(Nc1ncns1)c1cc(Cl)ncc1Cl [Example I-011] | 100 | 90 | 100 | 100 | 90 | 100 | 100 | 90 | 100 | 100 | 90 | – | 90 | 100 | 90 | 90 | 100 | 100 | 90 | 90 | herbicidal effect in percent (%), AMARE (Amaranthus retroflexus [1]; 320 g/ha): 90%; herbicidal effect in percent (%), DIGSA (Digitaria sanguinalis [3]; 320 g/ha): 90%; herbicidal effect in percent (%), KCHSC (Kochia scoparia [5]; 320 g/ha): 90% |
| O=C(Nc1ncns1)c1cc(Cl)ncc1C(F)(F)F [Example I-013, 2-chloro-N-(1,2,4-thiadiazol-5-yl)-5-(trifluoromethyl)pyridine-4-carboxamide] | 100 | 100 | 100 | – | 100 | 100 | 100 | 100 | 100 | 100 | – | 100 | 100 | 90 | 100 | 100 | 100 | 90 | 90 | 100 | herbicidal effect in percent (%), KCHSC (Kochia scoparia [5]; 320 g/ha): 100%; herbicidal effect in percent (%), LOLRI (Lolium rigidum [6]; 320 g/ha): 90%; herbicidal effect in percent (%), VERPE (Veronica persica [11]): 100%; herbicidal effect in percent (%), KCHSC (Kochia scoparia [19]): 100%; herbicidal effect in percent (%), LOLRI (Lolium rigidum [14]; 320 g/ha): 90%; herbicidal effect in percent (%), ABUTH (Abutilon theophrasti [20]): 90%; herbicidal effect in percent (%), ECHCG (Echinochloa crus-galli): 100% |
